For 37 compounds, IC50 results are on record in ChEMBL document CHEMBL3352351 (Bioorg Med Chem, 2014).

One test has as its system A549. Kind of test: Cytotoxicity against human A549 cells after 72 hrs by MTT assay. As to conditions: A549, 72 h. (In general: Formazan colour is commonly taken as a measure of viable cells.)
The next test concerns HT-29. Put plainly: Cytotoxicity against human HT-29 cells after 72 hrs by MTT assay. As to conditions: HT-29, 72 h.
The nature of test [1]: Cytotoxicity against human MKN45 cells after 72 hrs by MTT assay. As to conditions: MKN-45, 72 h.
Test [2] in a line: Cytotoxicity against human U87MG cells after 72 hrs by MTT assay. The format is functional, cell-based, U-87MG ATCC. As to conditions: U-87 MG.
For test [3], the target named is Hepatocyte growth factor receptor (Homo sapiens, UniProt P08581). Kind of test: Inhibition of c-Met (unknown origin) using poly (Glu, Tyr) 4:1 substrate incubated for 30 mins by HTRF assay.
Sequence of Hepatocyte growth factor receptor (P08581 whole entry): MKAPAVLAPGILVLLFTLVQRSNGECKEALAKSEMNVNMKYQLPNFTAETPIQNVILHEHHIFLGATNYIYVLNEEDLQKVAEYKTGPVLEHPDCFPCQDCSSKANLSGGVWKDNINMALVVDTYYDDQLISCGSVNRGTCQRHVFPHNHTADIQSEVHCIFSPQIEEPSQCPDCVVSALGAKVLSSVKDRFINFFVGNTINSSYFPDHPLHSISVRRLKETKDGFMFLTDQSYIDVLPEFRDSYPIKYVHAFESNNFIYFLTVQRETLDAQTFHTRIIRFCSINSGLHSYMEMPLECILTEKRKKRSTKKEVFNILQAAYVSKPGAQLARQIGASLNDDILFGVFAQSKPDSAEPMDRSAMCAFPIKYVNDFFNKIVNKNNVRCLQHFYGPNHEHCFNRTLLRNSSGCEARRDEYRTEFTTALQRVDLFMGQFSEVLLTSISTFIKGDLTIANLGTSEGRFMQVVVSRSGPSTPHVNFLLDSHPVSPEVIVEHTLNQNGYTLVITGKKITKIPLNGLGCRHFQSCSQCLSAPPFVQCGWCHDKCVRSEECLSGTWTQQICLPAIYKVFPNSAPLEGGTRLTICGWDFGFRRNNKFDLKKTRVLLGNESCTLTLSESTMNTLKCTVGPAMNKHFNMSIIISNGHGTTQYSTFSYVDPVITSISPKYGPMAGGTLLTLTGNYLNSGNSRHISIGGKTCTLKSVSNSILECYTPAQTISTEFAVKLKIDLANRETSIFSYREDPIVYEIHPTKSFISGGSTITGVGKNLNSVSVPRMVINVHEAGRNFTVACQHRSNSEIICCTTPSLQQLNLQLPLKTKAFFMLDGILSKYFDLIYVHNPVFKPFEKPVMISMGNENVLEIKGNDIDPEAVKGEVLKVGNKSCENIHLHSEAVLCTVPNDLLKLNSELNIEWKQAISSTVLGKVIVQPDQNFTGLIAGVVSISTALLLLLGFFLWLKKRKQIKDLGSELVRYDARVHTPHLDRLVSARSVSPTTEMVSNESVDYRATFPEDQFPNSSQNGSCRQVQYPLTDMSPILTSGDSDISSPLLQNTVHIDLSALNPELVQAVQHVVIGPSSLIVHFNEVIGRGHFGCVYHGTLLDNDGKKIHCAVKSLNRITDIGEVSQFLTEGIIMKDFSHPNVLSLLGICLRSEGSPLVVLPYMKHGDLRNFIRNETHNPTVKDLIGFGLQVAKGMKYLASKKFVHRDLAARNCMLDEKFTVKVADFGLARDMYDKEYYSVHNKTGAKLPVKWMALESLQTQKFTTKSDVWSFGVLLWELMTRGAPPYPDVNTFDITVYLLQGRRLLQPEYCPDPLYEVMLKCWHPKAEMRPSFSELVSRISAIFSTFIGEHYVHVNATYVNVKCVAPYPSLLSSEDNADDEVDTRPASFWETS
A short description of test [4]: Cytotoxicity against human H460 cells after 72 hrs by MTT assay. As to conditions: NCI-H460, 72 h.

SMILES strings stand for the structures.

For orientation: IC50 means the concentration that gives 50% inhibition. Higher therefore signals lower potency. `COc1cc2c(Oc3ccc(NC(=O)c4nnn(-c5ccc(C)cc5)c4C(F)(F)F)cc3F)ccnc2cc1OCCCN1CCC(C)CC1`: the IC50 with A549 was 400 nM; with HT-29 it was 1200 nM; in test [1], 140 nM; in test [2] it was 2800 nM.

`COc1cc2c(Oc3ccc(NC(=O)c4nnn(-c5cccc(Br)c5)c4C(F)(F)F)cc3F)ccnc2cc1OCCCN1CCC(C)CC1`: the values for the half-maximal inhibitory concentration (IC50) (in the test on A549; in the test on HT-29; in test [1]) were 350 nM, 380 nM and 120 nM, respectively.

`COc1ccc(-n2nnc(C(=O)Nc3ccc(Oc4ccnc5cc(OCCCN6CCCCC6)c(OC)cc45)c(F)c3)c2C(F)(F)F)cc1`: the IC50 stood at 890 nM in the test on A549, 1220 nM in the test on HT-29, 280 nM in test [1] and 2800 nM in test [2].

Consider `COc1cc2c(Oc3ccc(NC(=O)c4nnn(-c5ccccc5C(F)(F)F)c4C)cc3F)ccnc2cc1OCCCN1CCOCC1`, for which the IC50 with A549 amounted to 180 nM; with HT-29, 200 nM; in test [1], 100 nM; in test [2], 1010 nM.

In the case of `COc1cc2c(Oc3ccc(NC(=O)c4nnn(-c5ccc(C)cc5)c4C(F)(F)F)cc3F)ccnc2cc1OCCCN1CCN(C)CC1`, the IC50 came out at 370 nM in the test on A549, 1170 nM in the test with HT-29, 140 nM in test [1] and 2170 nM in test [2].

As to `COc1cc2c(Oc3ccc(NC(=O)c4nnn(-c5ccc(F)c(F)c5)c4C(F)(F)F)cc3F)ccnc2cc1OCCCN1CCOCC1`, the IC50 stood at 150 nM in the test on A549, 230 nM in the test on HT-29, 50 nM in test [1] and 1130 nM in test [2].

With `COc1cc2c(Oc3ccc(NC(=O)c4nnn(-c5ccccc5Cl)c4C(F)(F)F)cc3F)ccnc2cc1OCCCN1CCCCC1`, the IC50 with A549 is 190 nM; with HT-29 it was 200 nM; in test [1] it was 110 nM; in test [2] it was 1200 nM.

Take `COc1cc2c(Oc3ccc(NC(=O)c4nnn(-c5ccccc5)c4C)cc3F)ccnc2cc1OCCCN1CCCCC1`: the IC50 in the test on A549 worked out at 100 nM; in the test on HT-29 it was 120 nM; in test [1], 80 nM; in test [2] it was 1130 nM.

`COc1cc2c(Oc3ccc(NC(=O)c4nnn(-c5ccccc5C(F)(F)F)c4C(F)(F)F)cc3F)ccnc2cc1OCCCN1CCC(C)CC1`: the IC50 with A549 is 220 nM; in the test with HT-29, 200 nM; in test [1], 100 nM; in test [2], 1240 nM.

As to `COc1cc2c(Oc3ccc(NC(=O)c4nnn(-c5ccc(F)c(F)c5)c4C(F)(F)F)cc3F)ccnc2cc1OCCCN1CCCC1`, the IC50 with A549 stood at 170 nM; in the test with HT-29, 180 nM; in test [1], 70 nM; in test [2], 1070 nM.

For the compound `COc1cc2c(Oc3ccc(NC(=O)c4nnn(-c5ccccc5C(F)(F)F)c4C)cc3F)ccnc2cc1OCCCN1CCCC1`, the 50% inhibitory concentration (IC50) in the test on A549 was determined as 160 nM; in the test with HT-29, 200 nM; in test [1], 70 nM; in test [2], 1060 nM.

Turning to `COc1cc2c(Oc3ccc(NC(=O)c4nnn(-c5ccccc5)c4C)cc3F)ccnc2cc1OCCCN1CCC(C)CC1`, the IC50 in the test with A549 was 110 nM; in the test on HT-29 it was 140 nM; in test [1], 90 nM; in test [2], 1240 nM.

With `COc1cc2c(Oc3ccc(NC(=O)c4nnn(-c5ccccc5C(F)(F)F)c4C(F)(F)F)cc3F)ccnc2cc1OCCCN1CCOCC1`, the half-inhibitory concentration (IC50) turned out to be 210 nM with A549, 230 nM in the test with HT-29, 90 nM in test [1] and 1160 nM in test [2].

With `COc1cc2c(Oc3ccc(NC(=O)c4nnn(-c5ccc(F)c(F)c5)c4C(F)(F)F)cc3F)ccnc2cc1OCCCN1CCN(C)CC1`, the IC50 in the test with A549 worked out at 130 nM; in the test on HT-29, 150 nM; in test [1] it was 90 nM; in test [2], 1390 nM.

Consider `COc1cc2c(Oc3ccc(NC(=O)c4nnn(-c5ccccc5)c4C)cc3F)ccnc2cc1OCCCN1CCCC1`, for which the IC50 in the test on A549 is 90 nM; with HT-29 it was 130 nM; in test [1] it was 40 nM; in test [2] it was 1000 nM.

On to `COc1cc2c(Oc3ccc(NC(=O)c4nnn(-c5ccccc5)c4C)cc3F)ccnc2cc1OCCCN1CCOCC1`, for which the IC50 worked out at 140 nM in the test with A549, 180 nM in the test on HT-29, 60 nM in test [1] and 1060 nM in test [2].

As to `COc1cc2c(Oc3ccc(NC(=O)c4nnn(-c5ccccc5C)c4C)cc3F)ccnc2cc1OCCCN1CCOCC1`, the 50% inhibitory concentration (IC50) with A549 was 320 nM; in the test on HT-29 it was 470 nM; in test [1] it was 220 nM; in test [2] it was 1500 nM.

For the compound `COc1cc2c(Oc3ccc(NC(=O)c4nnn(-c5ccc(F)c(F)c5)c4C(F)(F)F)cc3F)ccnc2cc1OCCCN1CCC(C)CC1`, the 50% inhibitory concentration (IC50) with A549 was 140 nM; in the test with HT-29 it was 190 nM; in test [1], 50 nM; in test [2], 1150 nM.

On to `COc1cc2c(Oc3ccc(NC(=O)c4nnn(-c5ccccc5C(F)(F)F)c4C)cc3F)ccnc2cc1OCCCN1CCCCC1`, for which the IC50 in the test with A549 amounted to 170 nM; in the test on HT-29, 200 nM; in test [1], 90 nM; in test [2] it was 1150 nM.

Regarding `COc1cc2c(Oc3ccc(NC(=O)c4nnn(-c5ccccc5C(F)(F)F)c4C(F)(F)F)cc3F)ccnc2cc1OCCCN1CCCC1`, the half-maximal inhibitory concentration (IC50) amounted to 3.68 nM in test [3]; 200 nM with A549; 270 nM in test [4]; 210 nM in the test on HT-29; 60 nM in test [1]; 1180 nM in test [2].

Take `COc1ccc(-n2nnc(C(=O)Nc3ccc(Oc4ccnc5cc(OCCCN6CCCC6)c(OC)cc45)c(F)c3)c2C(F)(F)F)cc1`: the 50% inhibitory concentration (IC50) was 560 nM in the test on A549, 1020 nM in the test with HT-29 and 590 nM in test [1].

For `COc1cc2c(Oc3ccc(NC(=O)c4nnn(-c5ccccc5C)c4C)cc3F)ccnc2cc1OCCCN1CCC(C)CC1`, the IC50 turned out to be 360 nM in the test with A549, 520 nM with HT-29, 120 nM in test [1] and 2160 nM in test [2].

Take `COc1cc2c(Oc3ccc(NC(=O)c4nnn(-c5ccc(F)cc5)c4C(F)(F)F)cc3F)ccnc2cc1OCCCN1CCOCC1`: the IC50 in the test on A549 amounted to 130 nM; in the test on HT-29, 140 nM; in test [1], 60 nM; in test [2], 1080 nM.

In the case of `COc1cc2c(Oc3ccc(NC(=O)c4nnn(-c5ccc(F)cc5)c4C(F)(F)F)cc3F)ccnc2cc1OCCCN1CCC(C)CC1`, the IC50 turned out to be 120 nM in the test on A549, 160 nM in the test with HT-29, 70 nM in test [1] and 800 nM in test [2].

With `COc1cc2c(Oc3ccc(NC(=O)c4nnn(-c5ccccc5C(F)(F)F)c4C)cc3F)ccnc2cc1OCCCN1CCN(C)CC1`, the 50% inhibitory concentration (IC50) in the test with A549 came out at 200 nM; in the test on HT-29, 230 nM; in test [1], 100 nM; in test [2] it was 1420 nM.

In the case of `COc1cc2c(Oc3ccc(NC(=O)c4nnn(-c5ccc(C)cc5)c4C(F)(F)F)cc3F)ccnc2cc1OCCCN1CCOCC1`, the IC50 in the test on A549 turned out to be 350 nM; in the test with HT-29, 570 nM; in test [1] it was 620 nM; in test [2], 2700 nM.

As to `COc1cc2c(Oc3ccc(NC(=O)c4nnn(-c5ccccc5C)c4C)cc3F)ccnc2cc1OCCCN1CCCCC1`, the concentration for half-maximal inhibition (IC50) in the test with A549 amounted to 330 nM; in the test with HT-29, 450 nM; in test [1] it was 160 nM; in test [2], 2370 nM.

Consider `COc1cc2c(Oc3ccc(NC(=O)c4nnn(-c5ccc(F)cc5)c4C(F)(F)F)cc3F)ccnc2cc1OCCCN1CCCCC1`, for which the half-inhibitory concentration (IC50) with A549 turned out to be 110 nM; in the test on HT-29, 150 nM; in test [1], 40 nM; in test [2], 1100 nM.

Take `COc1cc2c(Oc3ccc(NC(=O)c4nnn(-c5ccc(F)c(F)c5)c4C(F)(F)F)cc3F)ccnc2cc1OCCCN1CCCCC1`: the concentration for half-maximal inhibition (IC50) in the test with A549 stood at 160 nM; in the test with HT-29, 180 nM; in test [1], 90 nM; in test [2], 1210 nM.

In the case of `COc1ccc(-n2nnc(C(=O)Nc3ccc(Oc4ccnc5cc(OCCCN6CCN(C)CC6)c(OC)cc45)c(F)c3)c2C(F)(F)F)cc1`, the IC50 with A549 is 1220 nM; with HT-29, 2200 nM; in test [1] it was 330 nM.

In the case of `COc1cc2c(Oc3ccc(NC(=O)c4nnn(-c5ccccc5C)c4C)cc3F)ccnc2cc1OCCCN1CCCC1`, the IC50 stood at 380 nM with A549, 450 nM with HT-29, 270 nM in test [1] and 1600 nM in test [2].

With `COc1ccc(-n2nnc(C(=O)Nc3ccc(Oc4ccnc5cc(OCCCN6CCOCC6)c(OC)cc45)c(F)c3)c2C(F)(F)F)cc1`, the IC50 turned out to be 640 nM in the test on A549, 1080 nM in the test with HT-29, 680 nM in test [1] and 2400 nM in test [2].

As to `COc1cc2c(Oc3ccc(NC(=O)c4nnn(-c5ccc(C)cc5)c4C(F)(F)F)cc3F)ccnc2cc1OCCCN1CCCCC1`, the IC50 with A549 turned out to be 490 nM; in the test on HT-29, 1250 nM; in test [1], 230 nM; in test [2], 2500 nM.

Turning to `COc1cc2c(Oc3ccc(NC(=O)c4nnn(-c5ccc(C)cc5)c4C(F)(F)F)cc3F)ccnc2cc1OCCCN1CCCC1`, the figures for the IC50 (in the test on A549; in the test with HT-29; in test [1]) were 370 nM, 550 nM and 210 nM, respectively.

For the compound `COc1cc2c(Oc3ccc(NC(=O)c4nnn(-c5ccccc5C(F)(F)F)c4C(F)(F)F)cc3F)ccnc2cc1OCCCN1CCN(C)CC1`, the IC50 was 180 nM in the test on A549, 230 nM in the test with HT-29, 100 nM in test [1] and 1440 nM in test [2].

Regarding `COc1cc2c(Oc3ccc(NC(=O)c4nnn(-c5ccccc5Cl)c4C(F)(F)F)cc3F)ccnc2cc1OCCCN1CCN(C)CC1`, the 50% inhibitory concentration (IC50) in the test with A549 is 240 nM; in the test on HT-29, 270 nM; in test [1] it was 166 nM; in test [2], 1220 nM.

With `COc1cc2c(Oc3ccc(NC(=O)c4nnn(-c5ccccc5C(F)(F)F)c4C)cc3F)ccnc2cc1OCCCN1CCC(C)CC1`, the half-inhibitory concentration (IC50) in the test with A549 worked out at 180 nM; in the test on HT-29, 260 nM; in test [1], 60 nM; in test [2], 1120 nM.
